Test results reported in paper PMC11089204 (Frontiers in Pharmacology, 2024).
Where “and” joins values, the source holds several entries; their conditions need not be identical. Identical values can stand only once. Like-named read-outs stand apart in the source and are kept apart here.

What was measured:
recombinant CYP2D6 = molecular target: T1, recombinant CYP2D6 (Homo sapiens, UniProt P10635); test: Incubation with recombinant CYP2D6 enzymes; type: in vitro ADME
T1 construct: purchased Corning Life Sciences B.V
T1 sequence (P10635 whole entry): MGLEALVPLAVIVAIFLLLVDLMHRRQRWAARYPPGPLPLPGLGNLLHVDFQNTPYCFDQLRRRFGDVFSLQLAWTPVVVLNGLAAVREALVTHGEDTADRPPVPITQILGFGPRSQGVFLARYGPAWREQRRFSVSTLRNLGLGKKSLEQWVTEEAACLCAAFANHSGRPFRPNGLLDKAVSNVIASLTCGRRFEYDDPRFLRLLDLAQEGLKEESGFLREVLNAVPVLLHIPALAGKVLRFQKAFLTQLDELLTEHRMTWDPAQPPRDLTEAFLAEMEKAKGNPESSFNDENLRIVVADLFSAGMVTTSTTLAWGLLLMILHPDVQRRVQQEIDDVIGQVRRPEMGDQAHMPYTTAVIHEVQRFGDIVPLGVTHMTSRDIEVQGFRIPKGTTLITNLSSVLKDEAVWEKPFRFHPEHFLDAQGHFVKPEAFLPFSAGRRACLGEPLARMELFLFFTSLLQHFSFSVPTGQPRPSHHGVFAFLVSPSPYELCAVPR
Experimental: (§1) Corning UltraPool human liver microsomes (HLM) 150 (20 mg/mL), human intestinal microsomes (HIM) pool (10 mg/mL) as well as recombinant human CYP enzymes (with P450 oxidoreductase, OR) including CYP1A2+OR (0.5 nmol), CYP2B6+OR (0.5 nmol), CYP2C8+OR (1.0 nmol), CYP2C9*1+OR (1 nmol), CYP2C19+OR (0.5 nmol), CYP2D6*1+OR (0.5 nmol), CYP2E1+OR + cytochrome b5 (1 nmol), CYP3A4+OR + cytochrome b5 (0.5 nmol), MAO-A (5 mg/mL), MAO-B (5 mg/mL), and UGT1A10 (5 mg/mL) were purchased from Corning Life Sciences B.V (Amsterdam, Netherlands). All microsomes and recombinant enzyme solutions were aliquoted and stored at −80 °C until further use.
(§2) The total volume of the reaction mixture was 500 μL. […] Samples were either directly analyzed by liquid chromatography tandem mass spectrometry (LC-MS/MS) or briefly stored at −20°C until analysis.

recombinant MAO-B = molecular target: T2, recombinant MAO-B (Homo sapiens, UniProt P27338); test: Incubation with recombinant MAO-B enzymes; type: in vitro ADME; details: 1,000 nM psilocin, rec. MAO-B
T2 construct: purchased Corning Life Sciences B.V
T2 sequence (P27338 1-520): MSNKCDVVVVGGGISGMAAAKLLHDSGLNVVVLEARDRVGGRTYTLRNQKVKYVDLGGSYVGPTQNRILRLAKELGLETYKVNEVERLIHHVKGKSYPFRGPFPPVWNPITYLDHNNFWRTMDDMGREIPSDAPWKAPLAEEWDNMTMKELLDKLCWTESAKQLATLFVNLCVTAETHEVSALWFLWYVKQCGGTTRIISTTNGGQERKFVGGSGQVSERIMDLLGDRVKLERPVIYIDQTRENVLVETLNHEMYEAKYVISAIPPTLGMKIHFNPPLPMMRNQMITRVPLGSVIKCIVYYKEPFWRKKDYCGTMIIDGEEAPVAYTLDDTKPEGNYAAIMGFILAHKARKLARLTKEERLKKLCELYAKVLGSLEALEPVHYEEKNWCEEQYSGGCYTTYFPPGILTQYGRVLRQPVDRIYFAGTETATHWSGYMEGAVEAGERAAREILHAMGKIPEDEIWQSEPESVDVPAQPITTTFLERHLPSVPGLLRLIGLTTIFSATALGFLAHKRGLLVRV
Experimental: as §1
(§3) The MAO inhibition assay was based on the assay described in section 2.5.1 and performed identically if not otherwise stated.

recombinant MAO-A = molecular target: T3, recombinant MAO-A (Homo sapiens, UniProt P21397); test: Incubation with recombinant MAO-A enzymes; type: in vitro ADME; details: for metabolite concentration formed from psilocin: 300 min; for metabolite formation from psilocin in presence of clorgyline: rec. MAO-A with clorgyline
T3 construct: purchased Corning Life Sciences B.V
T3 sequence (P21397 1-527): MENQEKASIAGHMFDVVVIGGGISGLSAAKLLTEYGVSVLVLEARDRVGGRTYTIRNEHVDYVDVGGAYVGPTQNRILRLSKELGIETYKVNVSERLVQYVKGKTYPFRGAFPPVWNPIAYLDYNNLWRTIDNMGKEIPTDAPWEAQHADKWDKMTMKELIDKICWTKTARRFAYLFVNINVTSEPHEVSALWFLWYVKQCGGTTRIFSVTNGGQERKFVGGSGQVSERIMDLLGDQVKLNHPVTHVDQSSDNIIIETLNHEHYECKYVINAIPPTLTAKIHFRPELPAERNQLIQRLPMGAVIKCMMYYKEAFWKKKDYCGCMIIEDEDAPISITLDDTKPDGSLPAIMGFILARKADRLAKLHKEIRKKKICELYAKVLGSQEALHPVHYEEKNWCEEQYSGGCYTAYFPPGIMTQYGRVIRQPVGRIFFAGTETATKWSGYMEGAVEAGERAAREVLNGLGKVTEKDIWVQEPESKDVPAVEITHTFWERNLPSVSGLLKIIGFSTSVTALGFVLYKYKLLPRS
Experimental: as §1, §3

[1] = system: human liver microsomes (HLM); test: Psilocin incubation with human liver microsomes (CYP inhibition assay); type: in vitro ADME; details: for metabolite concentration formed from psilocin / psilocin concentration (mean ± SD): 1,000 nM psilocin with HLM; for metabolite concentration formed from psilocin: 240 min incubation; for psilocin concentration: absence of HLM
Experimental: as §1, §2

human 5-HT1A receptor [2] = molecular target: T4, human 5-HT1A receptor (Homo sapiens, UniProt P08908); test: 5-HT activation potency (IP1 accumulation), 5-HT1A; type: cell-based; parameters: expressed in transfected cells
T4 sequence (P08908 1-422): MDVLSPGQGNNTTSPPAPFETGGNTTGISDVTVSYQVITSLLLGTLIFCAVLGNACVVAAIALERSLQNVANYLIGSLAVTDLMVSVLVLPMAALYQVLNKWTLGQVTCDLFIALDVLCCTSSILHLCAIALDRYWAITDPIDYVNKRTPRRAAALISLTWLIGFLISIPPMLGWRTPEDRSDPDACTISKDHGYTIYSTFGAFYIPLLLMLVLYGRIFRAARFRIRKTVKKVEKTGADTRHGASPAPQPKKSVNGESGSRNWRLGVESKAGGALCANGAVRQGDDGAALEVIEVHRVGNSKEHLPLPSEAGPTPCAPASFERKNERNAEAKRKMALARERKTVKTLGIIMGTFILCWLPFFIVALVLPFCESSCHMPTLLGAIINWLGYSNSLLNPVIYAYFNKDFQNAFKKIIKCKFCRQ
Experimental: . […] NIH/3T3 cells stably expressing the human 5-HT1A, 5-HT2A, and 5-HT2B receptors were seeded at a density of 3,000 cells (5-HT1A and 5-HT2A) or 4,000 cells (5-HT2B) in 384-well plates using Opti-MEM medium from Gibco (ThermoFisher, Life Technologies, Zug, Switzerland). Subsequently, the test compounds were introduced, and the plates were incubated for 90 min at 37°C, followed by a 60 min incubation with Anti-IP1-Cryptate and IP1-d2 at room temperature. The formation of stimulated IP1 was quantified by homogeneous time-resolved fluorescence (HTRF) measurements using a BioTek Synergy H1 microplate reader (Agilent Technologies, Basel, Switzerland). The obtained raw data for receptor activation were subjected to normalization, wherein the baseline signal was set at 0%, and the maximum signal stimulated by 5-HT at the specific receptor was established as 100%.

human 5-HT1A receptor [3] = molecular target: T4, human 5-HT1A receptor; test: Radioligand receptor binding, 5-HT1A; parameters: expressed in transfected cells; host or cells: HEK 293 membrane preparations; details: HEK 293 membranes, [3H]8-OH-DPAT
[4] = molecular target: T5, MAO-A in human liver microsomes (HLM) (Homo sapiens, UniProt P21397); test: Monoamine oxidase A inhibition in human liver microsomes; type: in vitro ADME; details: for biotransformation on incubation with HLM: 1,000 nM 4-HIAA or 4-HTP incubated with HLM; for metabolite concentration formed from psilocin (mean ± SD) / metabolite formation from psilocin in presence of clorgyline: 1,000 nM psilocin; for metabolite concentration formed from psilocin (mean ± SD): HLM alone, t = 240 min; for metabolite formation from psilocin in presence of clorgyline: HLM with MAO-A inhibitor clorgyline
T5 construct: tissue Corning Life Sciences B.V; host or cells: pooled human liver microsomes
T5 sequence (P21397 1-527): T3 sequence (P21397 1-527)

[5] = NIH/3T3 cells, IP1 accumulation, read-out: h5-HT1A Activation potency EC50 ± SD
[6] = read-out: h5-HT1A Receptor binding Ki ± SD

| SMILES | formation of metabolite from psilocin (recombinant CYP2D6; rec. CYP2D6) | formation of metabolite from psilocin (recombinant MAO-B) | metabolite concentration formed from psilocin (recombinant MAO-A; 1,000 nM psilocin, rec. MAO-A) | metabolite formation from psilocin in presence of clorgyline (recombinant MAO-A) | metabolite concentration formed from psilocin [1] | EC50 (human 5-HT1A receptor [2]; [5]) | Ki (human 5-HT1A receptor [3]; [6]) | biotransformation on incubation with HLM [4] | metabolite concentration formed from psilocin (mean ± SD) [4] | metabolite formation from psilocin in presence of clorgyline [4] | further results |
| --- | --- | --- | --- | --- | --- | --- | --- | --- | --- | --- | --- |
| O=C(O)Cc1c[nH]c2cccc(O)c12 [4-HIAA, 4-hydroxyindole-3-acetic acid] | neither observed | did not produce any | 20.1 ± 2.8 nM | inhibited | 43.0 ± 7.9 nM | > 10000 nM | > 10000 nM | did not lead to any biotransformation | 8.5 ± 3.8 nM | complete inhibition |  |
| CN(C)CCc1c[nH]c2cccc(O)c12 [psilocin, 4-hydroxy-N,N-dimethyltryptamine] |  |  |  |  |  |  |  |  |  |  | psilocin concentration (mean ± SD) (recombinant CYP2D6; 1,000 nM psilocin, rec. CYP2D6, t = 0 min): 937 ± 145 nM; psilocin concentration (mean ± SD) (recombinant CYP2D6; 1,000 nM psilocin, rec. CYP2D6, t = 240 min): 21.1 ± 14.2 nM; psilocin metabolized (recombinant CYP2D6; rec. CYP2D6): ~100%; psilocin concentration (mean ± SD) (recombinant CYP2D6; rec. CYP2D6 with quinidine, t = 0 min): 1,081 ± 241 nM; psilocin concentration (mean ± SD) (recombinant CYP2D6; rec. CYP2D6 with quinidine, t = 240 min): 747 ± 30 nM; change of psilocin concentration (recombinant MAO-B): did not visibly decrease; change of psilocin concentration (recombinant MAO-A; 1,000 nM psilocin, rec. MAO-A): did not visibly decrease; psilocin concentration (mean ± SD) ([1]; after 240 min): 829 ± 32 nM; psilocin concentration (mean ± SD) ([1]; start of incubation): 1,162 ± 146 nM; effect of targeted inhibition of specific CYP enzymes in HLM on psilocin degradation ([1]; 1,000 nM psilocin, HLM with selective CYP inhibitors): did not lead to a clear inhibition; psilocin concentration ([1]; t = 0 min): 1,141 ± 74 nM; psilocin concentration ([1]; t = 240 min): 1,096 ± 105 nM; EC50 (human 5-HT1A receptor [2]): 1.7 ± 2.4 nM; Ki (human 5-HT1A receptor [3]; h5-HT1A Receptor binding Ki ± SD): < 136 nM and 128 nM; change of psilocin concentration ([4]; 1,000 nM psilocin with HLM): did not visibly decrease |
| OCCc1c[nH]c2cccc(O)c12 [4-HTP, 4-hydroxytryptophol] | neither observed | did not produce any | 16.9 ± 2.9 nM | inhibited | 43.4 ± 6.0 nM | > 10000 nM | > 10000 nM | did not lead to any biotransformation | 25.3 ± 6.0 nM | complete inhibition |  |
